{"source": "ChEMBL document CHEMBL1201862", "about": "“PubChem BioAssay data set” (2004)", "key": {"[1]": {"biological_target": "T1, Apoptotic protease-activating factor 1 (Homo sapiens, UniProt O14727)", "T1 sequence (O14727 whole entry)": "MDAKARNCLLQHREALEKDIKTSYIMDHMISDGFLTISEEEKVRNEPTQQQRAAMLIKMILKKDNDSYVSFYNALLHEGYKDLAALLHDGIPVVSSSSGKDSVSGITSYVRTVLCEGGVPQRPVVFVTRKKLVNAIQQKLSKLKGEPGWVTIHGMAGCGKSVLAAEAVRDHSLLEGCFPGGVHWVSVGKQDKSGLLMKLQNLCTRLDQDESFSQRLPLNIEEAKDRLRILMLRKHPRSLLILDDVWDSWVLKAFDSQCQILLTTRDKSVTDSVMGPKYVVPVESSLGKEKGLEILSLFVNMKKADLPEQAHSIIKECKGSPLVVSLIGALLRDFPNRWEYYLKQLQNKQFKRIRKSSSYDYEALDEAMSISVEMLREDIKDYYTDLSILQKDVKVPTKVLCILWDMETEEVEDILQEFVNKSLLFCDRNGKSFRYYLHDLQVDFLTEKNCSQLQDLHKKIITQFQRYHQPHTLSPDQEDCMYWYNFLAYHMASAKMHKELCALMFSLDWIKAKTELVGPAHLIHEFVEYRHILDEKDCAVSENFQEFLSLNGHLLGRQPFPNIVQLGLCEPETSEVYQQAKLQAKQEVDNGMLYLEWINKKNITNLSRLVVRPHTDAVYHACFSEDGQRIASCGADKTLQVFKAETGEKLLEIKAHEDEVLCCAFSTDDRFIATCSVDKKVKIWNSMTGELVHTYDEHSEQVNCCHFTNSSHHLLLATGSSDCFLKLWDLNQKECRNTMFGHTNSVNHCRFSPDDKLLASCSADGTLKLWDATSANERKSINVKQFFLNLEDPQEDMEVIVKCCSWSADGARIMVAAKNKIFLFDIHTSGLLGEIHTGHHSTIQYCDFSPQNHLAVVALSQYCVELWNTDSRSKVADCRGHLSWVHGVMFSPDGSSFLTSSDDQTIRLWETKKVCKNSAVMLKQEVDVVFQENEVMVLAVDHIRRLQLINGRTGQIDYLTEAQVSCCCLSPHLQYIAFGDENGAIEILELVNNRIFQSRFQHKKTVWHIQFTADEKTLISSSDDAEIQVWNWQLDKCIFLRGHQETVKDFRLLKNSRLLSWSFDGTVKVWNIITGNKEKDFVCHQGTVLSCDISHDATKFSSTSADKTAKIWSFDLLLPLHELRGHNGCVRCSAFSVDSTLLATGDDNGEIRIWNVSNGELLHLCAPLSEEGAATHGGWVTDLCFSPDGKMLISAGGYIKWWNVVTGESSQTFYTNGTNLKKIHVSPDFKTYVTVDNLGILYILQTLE", "assay_type": "functional"}, "[2]": {"biological_target": "Serine/threonine-protein phosphatase PP1-alpha catalytic subunit (Homo sapiens, UniProt P62136)", "sequence (P62136 whole entry)": "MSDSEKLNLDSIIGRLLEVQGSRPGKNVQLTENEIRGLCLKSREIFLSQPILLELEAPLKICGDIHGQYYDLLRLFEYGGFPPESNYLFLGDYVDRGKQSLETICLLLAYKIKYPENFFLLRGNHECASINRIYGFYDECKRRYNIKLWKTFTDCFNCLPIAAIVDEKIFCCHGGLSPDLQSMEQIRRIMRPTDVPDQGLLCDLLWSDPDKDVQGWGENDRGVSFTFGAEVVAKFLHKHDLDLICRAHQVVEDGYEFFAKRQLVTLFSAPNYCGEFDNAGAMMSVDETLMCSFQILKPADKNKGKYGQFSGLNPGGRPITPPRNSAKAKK", "experiment": "inhibition of protein phosphatase 1 activity – biochemical, fluorescence, dose response (AID 2394)"}}, "note": "The source made the active and inactive calls.", "data": [{"smiles": "Cc1ccc(S(=O)(=O)/N=C2\\C=C(Nc3cccc(C(=O)O)c3)C(=O)c3ccccc32)c(C)c1", "values": [{"measurement": "IC50", "setting": "[1]", "value": "4.11 µM (active)"}, {"measurement": "IC50", "setting": "[2]", "value": "27.1 µM (not active)"}]}]}
